# Source: PMC6315541, “Nile Tilapia Derived Antimicrobial Peptide TP4 Exerts Antineoplastic Activity Through Microtubule Disruption” (Marine Drugs, 2018)
# Key:
# A549 cells = assay: Cell viability (CellTiter-Glo ATP assay) in A549 cells; assay type: cell-based, human; conditions: 24 h; for relative ATP levels (cell viability): CellTiter-Glo ATP assay, luminescence, mean ± SD of three independent assays, n ≥ 5 wells per dose
# Protocol: Figure 6 Loss of cancer-killing ability in TP4 mutants. (A) Cell viability in A549 cells was determined by the adenosine triphosphate (ATP) assay following treatment with varying doses of TP4 and TP4 mutants for 24 h. Multiple wells were analyzed for each assay. Results represent the mean ± SD. Statistical comparisons between groups were performed using two-way ANOVA: a, not significant; b, p < 0.05; d, p < 0.001. Statistical analyses are shown in Supplementary Table S1. (B) Cells were stained for TP4 (WT panel), FITC (MT-1 to MT-6 panels), α-Tubulin, and F-actin. Hoechst33342 was used for nuclei staining. Boxed regions are magnified in the furthest right panels. […] Bar: 20 μm.
# The A549 cell line (Bioresource Collection and Research Center (BCRC) 60074) was purchased from the BCRC and cultured according to BCRC recommendations. For the cell viability and transfection assay, 4–5 × 10^3 cells were seeded into the wells of a 96-well plate and cultured overnight. Cells were then treated according to the indicated doses and times. Cell viability was quantified using the CellTiter-Glo® Luminescent Cell Viability Assay kit (ATP assay) (Madison, WI, USA) as previously described. The luminescent signal was measured using a photometer (SpectraMax® i3, Molecular Devices, Wals, Austria).
# For the multi-well based assay, cells were plated at least in quadruplicate. Data were collected from independently repeated experiments (N ≥ 3) and were analyzed by Prism5 software (GraphPad Inc., La Jolla, CA, USA). Statistical significance was determined by a two-tailed Student’s t-test or one-way/two-way analysis of variance (ANOVA) with a Bonferroni post hoc test. Differences were considered statistically significant at p < 0.05. […]
# Supplementary Table S1. Cellular toxicit y of TP 4 to A549 cells was evaluated b y cell viability. Results of statis tical tests on data in Figu re 6A are shown. Multiple wells were anal yzed for each ex periment (n ≥ 5 wells per do se). Results represent the mean ± SD from three independent assays. Statistical comparisons between mock versus TP4 treatment groups were performed using two -way ANOVA anal ysis with Bonferroni post-hoc test: a, not signi ficant; b, P < 0.05; c, P < 0.01; d, P < 0.001. […]
# (A-G) Th e helical projection plot and s tructural model o f TP4 (A) and TP4 variants (MT-1 to MT-6, B-G ). The helical proj ecti on was produced b y an online helical wheel projection program (http://rzlab.ucr.edu/scripts/wheel/wheel.cgi). Amino acid residues are numbered and each amino acid is connected with lines to indicate its relative position along the helix. The hydrophobic residues are shown as diamonds ; h ydrophilic residues are circles. Residues with negative charge are shown as trian gles and positively charged residues are pentagons. Hydrophobicity is color coded. The
# [1] = system: Pure tubulins (microtubule polymerization); assay: In vitro tubulin polymerization assay; assay type: biochemical
# Protocol: To test the models predicted by the molecular docking analysis, TP4 mutants were generated by substitution of Phe1, Ile16, and Arg23 with either Gly or Ala (mutant names and sequences are provided in Figure 5A), and the mutants were analyzed for their interaction with α-Tubulin. The sequence of TP4 is expected to form an α-helix, see Supplementary Figure S1A.
# Figure 5 TP4 inhibits microtubule polymerization. (A) Sequences of the TP4 wild type (WT) and mutants. Letters shown in red indicate substituted amino acids. (B,C) Dynamic measurement of the microtubule polymerization. Pure tubulins were assembled in the presence of TP4 (WT), TP4 mutants (MT1-6). H2O, paclitaxel, and nocodazole served as vehicle, positive, and negative controls, respectively.
# The Microtubule/Tubulin In Vivo Assay (Cytoskeleton, Inc., Denver, CO, USA) was performed using the “inhibitor condition” provided in the manufacturer’s instructions. Microtubule regrowth was assayed as described previously. Briefly, cells with or without 3 h, 10 μg mL^−1 TP4 treatment were incubated with nocodazole (20 μM) for 6 h at 37 °C. After washing with warm culture medium, cells were incubated for a further 0, 10, or 30 minutes. Fixed cells were stained with the α-Tubulin antibody and for F-actin. Confocal images were acquired on an FV3000 microscope (Olympus Corp., Tokyo, Japan).
sequence,measurement,setting,value
"FIHHIIGGLFSAGKAIHRLIRRRRR [TP4, synthesized Nile tilapia-derived antimicrobial peptide, Tilapia piscidin 4]",relative ATP levels (cell viability),A549 cells; 3.35 µM,0.580±0.061
same,relative ATP levels (cell viability),A549 cells; 5.03 µM,0.211±0.030
same,relative ATP levels (cell viability),"A549 cells; 6.71 µM, listed as WT",0.129±0.034
same,relative ATP levels (cell viability),"A549 cells; 6.71 µM, listed as wild-type TP4, 6.71 µM",0.130 ± 0.036
same,relative ATP levels (cell viability),"A549 cells; 20.12 µM, listed as WT",0.009±0.010
same,relative ATP levels (cell viability),"A549 cells; 20.12 µM, listed as wild-type TP4, 20.12 µM",0.010 ± 0.010
same,cytotoxicity to A549 cells (in words),"A549 cells; doses 3.35-20.12 µM, ATP assay, Figure 6A",obvious dose-dependent cytotoxic effects
same,effect on microtubule polymerization,"[1]; 10 μg mL^−1 peptide, dynamic measurement, Figure 5B",sufficient to disrupt microtubule polymerization
same,effect on microtubule polymerization,"[1]; 20 μg mL^−1 peptide, compared to controls, Figure 5C",completely inhibited microtubule polymerization
